Results as given in article PMC2837848 (Biochemistry, 2010).
Read-outs that look alike come from different tables or passages of the source.

Experiments:
[1] = target: QAPRTase (Salmonella typhimurium quinolinic acid phosphoribosyltransferase) (Salmonella enterica, UniProt P30012); test: steady-state kinetics; format: biochemical; conditions: read-out: WT
[2] = target: QAPRTase (Salmonella typhimurium quinolinic acid phosphoribosyltransferase) (Salmonella enterica, UniProt P30012, H189A); test: biochemical
[3] = target: QAPRTase (Salmonella typhimurium quinolinic acid phosphoribosyltransferase) (Salmonella enterica, UniProt P30012, R153A); test: biochemical

SMILES | Km ([1]; co-substrate QA) | Kd [2] | Kd [3] | Km ([1]; co-substrate PRPP)
O=P(O)(O)OC[C@H]1O[C@H](OP(=O)(O)OP(=O)(O)O)[C@H](O)[C@@H]1O [PRPP, 5-phosphoribosyl 1-pyrophosphate] | 57 ± 7 µM | 480 ± 75 µM | ~1000 µM | –
O=C(O)c1cccnc1C(=O)O [QA, quinolinic acid] | – | – | – | 27 ± 6 µM
